Data as given in patent US12213984B2, “Immunoregulatory agent” (KYUSHU UNIVERSITY, NATIONAL UNIVERSITY CORPORATION, priority 2015, dated 2025).

The compounds below were run against T1, DOCK2DHR-2 (lobe B and lobe C of the DHR-2 domain of DOCK2) (Homo sapiens, UniProt Q92608) (assay: in-vitro GEF assay, Rac activation by DOCK2 DHR-2 domain with various steroid compounds (Experimental Example 2)). Details: Experimental Example 2, Table 1; read-out: IC50 against the Rac activation by DOCK2DHR-2.
T1 construct: polypeptide fragments corresponding to a DHR-2 domain including the lobe B and the lobe C of DOCK2; Histidine-SUMO (N); made in house; host or cells: E. coli Arctic express DE3 (pET28a); Rac in E. coli BL21 DE3 (pGEX-6P-1)
T1 sequence (Q92608 1196-1622): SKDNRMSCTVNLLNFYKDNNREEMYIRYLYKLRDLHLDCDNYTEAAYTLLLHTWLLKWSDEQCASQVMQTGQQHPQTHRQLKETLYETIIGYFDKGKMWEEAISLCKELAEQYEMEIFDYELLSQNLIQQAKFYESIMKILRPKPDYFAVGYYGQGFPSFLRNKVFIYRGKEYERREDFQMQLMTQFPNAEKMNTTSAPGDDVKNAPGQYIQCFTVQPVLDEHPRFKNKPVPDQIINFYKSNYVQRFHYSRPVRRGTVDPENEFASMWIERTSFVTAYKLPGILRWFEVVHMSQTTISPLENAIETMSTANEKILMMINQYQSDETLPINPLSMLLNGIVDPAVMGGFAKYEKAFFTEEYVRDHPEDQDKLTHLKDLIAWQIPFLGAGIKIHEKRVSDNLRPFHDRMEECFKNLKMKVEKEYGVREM
Format: biochemical
Procedure: An examination was performed using various steroid compounds to test their effects on the Rac activation induced by proteins composed of the lobe B and the lobe C of the DHR-2 domain of DOCK2.
As the steroid compounds, cholesterol 3-sulfate (hereinafter, referred to as “C3S” in some cases), cholesterol, cholesterol 3-acetate (hereinafter, referred to as “C3A” in some cases), pregnenolone 3-sulfate (hereinafter, referred to as “PREG3S” in some cases), dehydroepiandrosterone (hereinafter, referred to as “DHEA” in some cases), dehydroepiandrosterone 3-sulfate (hereinafter, referred to as “DHEA3S” in some cases), estrone 3-sulfate (hereinafter, referred to as “Estrone3S” in some cases), estriol 3-sulfate (hereinafter, referred to as “Estriol3S” in some cases), and estradiol 3-sulfate (hereinafter, referred to as “Estradiol3S” in some cases) were used.
More specifically, a DOCK2-DHR-2 domain protein prepared by the same method as described above was incubated for 20 minutes at room temperature in the presence of various steroid compounds at a predetermined concentration dissolved in DMSO or in the presence of DMSO alone (control) under the shielded condition from light, thereby preparing a pretreated substance of GEF. The concentration of DMSO was adjusted such that it became 3% (1% in the final reaction solution) in all samples. Then, by in-vitro GEF assay in which Rac and Bodipy-FL-GTP prepared by the same method as described above were used, Rac activation by the DHR-2 domain was measured.
`CC(=O)O[C@H]1CC[C@@]2(C)C(=CC[C@H]3[C@@H]4CC[C@H]([C@H](C)CCCC(C)C)[C@@]4(C)CC[C@@H]32)C1` [C3A, cholesterol 3-acetate] showed an IC50 of over 200 µM. `C[C@]12CC[C@@H]3c4ccc(OS(=O)(=O)O)cc4CC[C@H]3[C@@H]1CC[C@@H]2O` [Estradiol3S, estradiol 3-sulfate] was tested, and the IC50 was over 200 µM. `CC(=O)C1CCC2C3CC=C4CC(OS(=O)(=O)O)CCC4(C)C3CCC12C` (centres unmarked) [PREG3S, pregnenolone 3-sulfate] gave an IC50 of 76.6 µM. `C[C@]12CC[C@@H]3c4ccc(OS(=O)(=O)O)cc4CC[C@H]3[C@@H]1CCC2=O` [Estrone3S, estrone 3-sulfate] showed an IC50 of over 200 µM. `CC(C)CCC[C@@H](C)[C@H]1CC[C@H]2[C@@H]3CC=C4C[C@@H](O)CC[C@]4(C)[C@H]3CC[C@]12C` [Cholesterol, cholesterol] showed an IC50 of over 200 µM. Work on `C[C@]12CC[C@H](OS(=O)(=O)O)CC1=CC[C@@H]1[C@@H]2CC[C@]2(C)C(=O)CC[C@@H]12` [DHEA3S, dehydroepiandrosterone 3-sulfate] yielded an IC50 of over 200 µM. `C[C@]12CC[C@@H]3c4ccc(OS(=O)(=O)O)cc4CC[C@H]3[C@@H]1C[C@@H](O)[C@@H]2O` [Estriol3S, estriol 3-sulfate] was tested, and the IC50 was over 200 µM.

Same assay, conditions: IC50 against the Rac activation by DOCK2DHR-2, Experimental Example 2, Table 1
`C[C@]12CC[C@H](O)CC1=CC[C@@H]1[C@@H]2CC[C@]2(C)C(=O)CC[C@@H]12` [DHEA, dehydroepiandrosterone] gave an IC50 of over 200 µM.
